What was measured:
human mTOR = target: T1, human mTOR (Homo sapiens, UniProt P42345); assay: mTOR Kinase Activity Inhibition Test; format: biochemical; conditions: His-tagged mTOR (1362C), biotinylated peptide substrate, ATP, 3 hours at room temperature, fluorescence resonance energy transfer 665 nm/620 nm; read-out: IC50 value of mTOR enzyme inhibitory activity
T1 construct: the portion corresponding to 1362-2549aa at the C terminus of human mTOR; made in house
Method: The kinase activity of mTOR was measured in the presence or absence of a test compound. A substrate peptide is phosphorylated by mTOR kinase activity. A complex of streptavidin-XL665 and anti-phosphorylated S6K (Thr389) antibody/anti-mouse IgG-cryptate binds to this phosphorylated peptide. At this moment, fluorescence resonance energy transfer takes place from antibody/anti-mouse IgG-cryptate exposed to light excitation to XL665, which results in emission of fluorescence at 665 nm. The mTOR kinase activity is detected using this principle.
(1) Sample Preparation and Enzymatic Reaction
An HEK293 cell line that constitutively expresses a His tag fused human mTOR has been established. His tag was introduced into the N terminus of the portion corresponding to 1362-2549aa at the C terminus of human mTOR. Cell lysate was prepared from this HEK293 cell line constitutively expressing His-tagged mTOR (1362C), and His-tagged mTOR (1362C) was purified using the His tag affinity according to a conventional method.
Next, an mTOR enzyme solution was prepared, which contains the aforementioned His-tagged mTOR (1362C) enzyme, 8 μg/mL of biotinylated peptide (Biotin-Ahx-[…]-amide (Sigma)), as well as 50 mM HEPES (pH 7.5), 20 mM MnCl2, 1 mg/ml BSA, an appropriate amount of protease inhibitor cocktail (Complete EDTA free, Roche), 100 ng/ml Calyculin A, 4 μg/ml Cantharidin and 10 mM DTT as other components.
The test compound was dissolved in DMSO, and serial dilutions were prepared with 20 μM ATP solution (50 mM HEPES (pH 7.5), 20 μM ATP) to achieve concentrations necessary for the assay. 5 μL of this compound solution was applied to each well of a 384 well small volume white Greiner plate.
5 μL of mTOR enzyme solution was added to the aforementioned well containing the test compound. After mixing, the mixture was incubated at room temperature for 3 hours to carry out the enzymatic reaction.
The same operation was performed with a solution of DMSO in 20 μM ATP solution as a positive control and with a solution of DMSO in 50 mM HEPES (pH 7.5) as a negative control.
(2) Detection of Enzymatic Reaction
After the enzymatic reaction, 5 μl each of an europium solution (a solution of anti-mouse IgG-cryptate (SCETI Medical Labo K.K.) and anti-phosphorylated S6K (Thr389) antibody (Cell Signaling Technology Inc.) in 50 mM HEPES (pH 7.5), 100 mM EDTA and 1.5 mg/ml BSA) and an XL665 solution (a solution of streptavidin-XL665 (SCETI Medical Labo K.K.) in 50 mM HEPES (pH 7.5), 100 mM EDTA, 0.8 M KF and 1.5 mg/ml BSA) were added in this order and then mixed. The mixture was incubated at 4° C. overnight. On the following day, the mixture was returned to room temperature and irradiated with excitation light at 337 nm. Fluorescence at 620 nm and fluorescence at 665 nm were measured with RUBYstar (BMG).
The mTOR inhibitory activity (%) was calculated using the ratio calculated from the measured values as an index of enzyme activity. Here, the ratio was calculated from the following formula (I). Ratio=10000×665 nm fluorescence value/620 nm fluorescence value (1)
The mTOR enzyme inhibitory activity (%) was calculated from the following formula (2). mTOR enzyme inhibitory activity (%)=100×[(P−S)/(P−N)] (2)
P: Ratio in well of positive control
N: Ratio in well of negative control
S: Ratio in well containing test compound
Further, an optimal curve was calculated based upon each concentration of the test compound prepared in serial dilutions and the mTOR enzyme inhibitory activity (%) at that concentration. The concentration at which 50% inhibition occurred was calculated as the IC50 value of mTOR enzyme inhibitory activity.

WM-266-4 cells = assay: Cell Proliferation Inhibitory Test; format: cell-based; conditions: Homo sapiens, 72 h, cultured three days with test compound, MTT, read-out: 50% cell proliferation inhibitory activity (GI50 value)
Method: WM-266-4 cells (ATCC, USA) were seeded in a 96-well plate and cultured overnight. Then, serial dilutions of the sample containing the test compound were prepared, added to each well and cultured another three days. Thereafter, the cell amount in each well was measured by MTT (MOSMANN, T., Rapid colorimetric assay for cellular growth and survival: application to proliferation and cytotoxicity assays. J. Immunol. Methods, 65, 55-63 (1983)). The 50% cell proliferation inhibitory activity (GI50 value) was calculated from the following formula (3). 100×[(T−T0)/(C−T0)]=50 (3)
Here, T represents values from the test compound added wells, C represents the value from the well to which the test compound was not added for three days, and To represents an initial measured value at the time of addition of the test compound.

T1 sequence (P42345 1362-2549): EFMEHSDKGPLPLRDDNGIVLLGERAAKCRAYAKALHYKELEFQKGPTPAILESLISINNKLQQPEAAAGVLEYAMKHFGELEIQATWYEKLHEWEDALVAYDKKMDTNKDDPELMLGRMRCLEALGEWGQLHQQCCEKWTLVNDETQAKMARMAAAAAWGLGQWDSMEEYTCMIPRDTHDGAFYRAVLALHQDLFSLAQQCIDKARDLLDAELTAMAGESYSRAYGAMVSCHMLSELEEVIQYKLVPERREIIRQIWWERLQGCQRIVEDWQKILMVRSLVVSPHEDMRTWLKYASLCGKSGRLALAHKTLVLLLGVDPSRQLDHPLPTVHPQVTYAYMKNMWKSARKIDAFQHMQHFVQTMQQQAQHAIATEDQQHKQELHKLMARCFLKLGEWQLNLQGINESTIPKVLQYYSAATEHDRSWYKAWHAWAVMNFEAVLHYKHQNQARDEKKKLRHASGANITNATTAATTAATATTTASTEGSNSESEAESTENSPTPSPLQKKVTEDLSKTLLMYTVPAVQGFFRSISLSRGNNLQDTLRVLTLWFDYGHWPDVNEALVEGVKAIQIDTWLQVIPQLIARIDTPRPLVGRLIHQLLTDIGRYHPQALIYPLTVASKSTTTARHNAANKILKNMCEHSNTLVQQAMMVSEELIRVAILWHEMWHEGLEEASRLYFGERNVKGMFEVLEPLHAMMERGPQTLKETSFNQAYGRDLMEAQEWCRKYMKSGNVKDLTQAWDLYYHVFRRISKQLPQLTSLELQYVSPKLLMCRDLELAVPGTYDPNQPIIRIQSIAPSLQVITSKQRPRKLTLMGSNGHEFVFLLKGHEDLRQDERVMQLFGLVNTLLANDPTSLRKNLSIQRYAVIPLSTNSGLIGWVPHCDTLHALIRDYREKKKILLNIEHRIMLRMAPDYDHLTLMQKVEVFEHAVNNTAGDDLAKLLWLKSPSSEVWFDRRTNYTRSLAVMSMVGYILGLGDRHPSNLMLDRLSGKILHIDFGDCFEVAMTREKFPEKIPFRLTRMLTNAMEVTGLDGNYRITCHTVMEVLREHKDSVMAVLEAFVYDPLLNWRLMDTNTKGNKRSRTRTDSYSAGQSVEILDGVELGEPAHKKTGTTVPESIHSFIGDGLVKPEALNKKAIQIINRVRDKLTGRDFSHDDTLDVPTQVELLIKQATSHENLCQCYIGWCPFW

Row | Compound | IC50 (human mTOR) | GI50 (WM-266-4 cells)
1 | CS(=O)(=O)N1CCN(CCn2c(=O)[nH]c3ncc(-c4cnc5[nH]ccc5c4)cc32)CC1 [Example 60, 1-{2-[4-(Methylsulfonyl)piperazin-1-yl]ethyl}-6-(1H-pyrrolo[2,3-b]pyridin-5-yl)-1,3-dihydro-2H-imidazo[4,5-b]pyridin-2-one] | < 0.05 µM | < 3 µM
2 | O=c1[nH]c2ncc(-c3cnc4[nH]cc(F)c4c3)cc2n1CC1CCOCC1 [Example 96, 6-(3-Fluoro-1H-pyrrolo[2,3-b]pyridin-5-yl)-1-(tetrahydro-2H-pyran-4-ylmethyl)-1,3-dihydro-2H-imidazo[4,5-b]pyridin-2-one] | < 0.05 µM | < 3 µM
3 | O=c1[nH]c2ncc(-c3ccc4ncccc4c3)cc2n1CC1CCOCC1 [Example 10, 6-Quinolin-6-yl-1-(tetrahydro-2H-pyran-4-ylmethyl)-1,3-dihydro-2H-imidazo[4,5-b]pyridin-2-one] | < 0.05 µM | 3 to 25 µM
4 | O=c1[nH]c2ncc(-c3ccc4[nH]ccc4c3)cc2n1C1CCOCC1 [Example 2, 6-(1H-Indol-5-yl)-1-(tetrahydro-2H-pyran-4-yl)-1,3-dihydro-2H-imidazo[4,5-b]pyridin-2-one] | 0.1 to 5 µM | < 3 µM
5 | O=c1[nH]c2ncc(-c3ccc4[nH]ccc4c3)cc2n1CC1CCCCC1 [Example 6, 1-(Cyclohexylmethyl)-6-(1H-indol-5-yl)-1,3-dihydro-2H-imidazo[4,5-b]pyridin-2-one] | < 0.05 µM | < 3 µM

More lines, main results first:

Row | IC50 (human mTOR) | Compound | GI50 (WM-266-4 cells)
6 | < 0.05 µM | C[C@@H]1CN(CCn2c(=O)[nH]c3ncc(-c4cnc5[nH]ccc5c4)cc32)C[C@H](C)O1 [Example 53, 1-{2-[cis-2,6-Dimethylmorpholin-4-yl]ethyl}-6-(1H-pyrrolo[2,3-b]pyridin-5-yl)-1,3-dihydro-2H-imidazo[4,5-b]pyridin-2-one] | < 3 µM
7 | 0.1 to 5 µM | Cc1c(-c2ccc3[nH]ccc3c2)cnc2[nH]c(=O)n(CC3CCOCC3)c12 [Example 8, 6-(1H-Indol-5-yl)-7-methyl-1-(tetrahydro-2H-pyran-4-ylmethyl)-1,3-dihydro-2H-imidazo[4,5-b]pyridin-2-one] | 3 to 25 µM
8 | < 0.05 µM | O=c1[nH]c2ncc(-c3cnc4[nH]ccc4c3)cc2n1CCC1=CCOCC1 [Example 48, 1-[2-(3,6-Dihydro-2H-pyran-4-yl)ethyl]-6-(1H-pyrrolo[2,3-b]pyridin-5-yl)-1,3-dihydro-2H-imidazo[4,5-b]pyridin-2-one] | < 3 µM
9 | < 0.05 µM | O=c1[nH]c2ncc(-c3cnc4[nH]ccc4c3)cc2n1C[C@H]1CC[C@@H](O)CO1 (racemic) [Example 112, 2,6-Anhydro-1,3,4-trideoxy-1-[2-oxo-6-(1H-pyrrolo[2,3-b]pyridin-5-yl)-2,3-dihydro-1H-imidazo[4,5-b]pyridin-1-yl]-DL-threo-hexitol] | < 3 µM
10 | < 0.05 µM | CO[C@H]1CCO[C@@H](Cn2c(=O)[nH]c3ncc(-c4cnc5[nH]cc(C)c5c4C)cc32)C1 [Example 151, 2,6-Anhydro-1,3,5-trideoxy-1-[6-(3,4-dimethyl-1H-pyrrolo[2,3-b]pyridin-5-yl)-2-oxo-2,3-dihydro-1H-imidazo[4,5-b]pyridin-1-yl]-4-O-methyl-L-threo-hexitol] | < 3 µM
11 | < 0.05 µM | CO[C@H]1CC[C@@H](Cn2c(=O)[nH]c3ncc(-c4cnc5[nH]cc(Cl)c5c4)cc32)CC1 [Example 115, 6-(3-Chloro-1H-pyrrolo[2,3-b]pyridin-5-yl)-1-[(cis-4-methoxycyclohexyl)methyl]-1,3-dihydro-2H-imidazo[4,5-b]pyridin-2-one] | < 3 µM
12 | < 0.05 µM | O=c1[nH]c2ncc(-c3cnc4[nH]ccc4c3Cl)cc2n1CC1CCOCC1 [Example 34, 6-(4-Chloro-1H-pyrrolo[2,3-b]pyridin-5-yl)-1-(tetrahydro-2H-pyran-4-ylmethyl)-1,3-dihydro-2H-imidazo[4,5-b]pyridin-2-one] | < 3 µM

Source: US8436012B2, “Imidazopyridin-2-one derivatives” (Daiichi Sankyo Company, Limited, priority 2008, dated 2013)
